This passage reports IC50 results from patent publication US20250186433A1, “ACSS2 INHIBITORS AND METHODS OF USE THEREOF” (EpiVario, Inc., priority 2017, published 2025).

The assay deals with ACSS2 (Homo sapiens, UniProt Q9NR19). Nature of the assay: biochemical.

Each structure is given as a SMILES string.
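Further: Pyrophosphatase-coupled ACSS2 enzyme assay, 10 nM protein incubated 90 min at 37 °C with ATP, CoA and acetate, released phosphate read by Biomol Green absorbance at 620 nm.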

Chain of ACSS2 (Q9NR19 whole entry): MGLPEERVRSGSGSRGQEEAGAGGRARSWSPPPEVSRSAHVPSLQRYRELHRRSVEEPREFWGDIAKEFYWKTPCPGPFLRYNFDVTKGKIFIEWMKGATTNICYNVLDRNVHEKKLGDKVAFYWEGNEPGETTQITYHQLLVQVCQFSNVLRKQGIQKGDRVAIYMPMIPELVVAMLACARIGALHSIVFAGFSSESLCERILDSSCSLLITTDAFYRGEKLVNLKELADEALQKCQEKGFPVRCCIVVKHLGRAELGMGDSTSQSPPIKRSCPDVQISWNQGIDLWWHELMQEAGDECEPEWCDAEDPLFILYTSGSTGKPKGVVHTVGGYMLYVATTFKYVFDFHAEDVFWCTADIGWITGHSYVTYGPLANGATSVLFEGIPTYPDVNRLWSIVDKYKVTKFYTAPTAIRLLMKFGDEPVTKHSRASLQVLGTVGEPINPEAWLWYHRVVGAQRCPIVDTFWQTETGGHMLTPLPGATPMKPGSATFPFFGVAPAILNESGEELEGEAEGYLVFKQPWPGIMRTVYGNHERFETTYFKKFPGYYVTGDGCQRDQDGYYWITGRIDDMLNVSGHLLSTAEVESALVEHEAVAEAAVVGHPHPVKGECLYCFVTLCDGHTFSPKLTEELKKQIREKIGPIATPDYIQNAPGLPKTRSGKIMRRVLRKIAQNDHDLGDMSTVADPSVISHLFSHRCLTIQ
Experimental: The assay is based on a coupling reaction with Pyrophosphatase: ACSS2 is converting ATP+CoA+Acetate=>AMP+pyrophosphate+Acetyl-CoA (Ac-CoA). Pyrophosphatase converts pyrophosphate, a product of the ACSS2 reaction, to phosphate which can be detected by measuring the absorbance at 620 nm after incubation with the Biomol green reagent (Enzo life Science, BML-AK111).
At the end of the reaction, Biomol Green was added for 30 minutes at RT and the activity was measured by reading the absorbance at 620 nm.

A word on the IC50: it is the midpoint of a concentration-inhibition curve. Consider `CCC(F)(F)c1cccc(NC(=O)C2C(=O)N(c3ccc4ccn(C(=O)c5ccc(C)cc5)c4c3)N=C2C)c1` (stereo not drawn) [compound 480, N-[3-(1,1-difluoropropyl)phenyl]-3-methyl-1-[1-(4-methylbenzoyl)indol-6-yl]-5-oxo-4H-pyrazole-4-carboxamide], for which the IC50 lay in the range of 6 to 100 nM. The same measure for `CCC(F)(F)c1cccc(NC(=O)C2C(=O)N(c3ccc(OC)c(-c4ccc(C)cn4)c3)N=C2C)c1` (stereo not drawn) [compound 534, N-(3-(1,1-difluoropropyl)phenyl)-1-(4-methoxy-3-(5-methylpyridin-2-yl)phenyl)-3-methyl-5-oxo-4,5-dihydro-1 H-pyrazole-4-carboxamide]: 0.01 to 6 nM; for `CCC(F)(F)c1cccc(NC(=O)C2C(=O)N(c3ccc4ccn(C(=O)c5ccccc5C)c4c3)N=C2C)c1` (stereo not drawn) [compound 479]: 0.01 to 6 nM. In turn, `CCCC(=O)n1ccc2ccc(N3N=C(C)C(C(=O)Nc4cccc(C(F)(F)CC)c4)C3=O)cc21` (stereo not drawn) [compound 478, 1-(1-butanoylindol-6-yl)-N-[3-(1,1-difluoropropyl)phenyl]-3-methyl-5-oxo-4H-pyrazole-4-carboxamide] came in with an IC50 of 0.01 to 6 nM. As for `CCc1cccc(NC(=O)C2C(=O)N(c3ccc([N+](=O)[O-])cc3)N=C2C)c1` (stereo not drawn) [compound 157], the IC50 was 1000 to 100000 nM. In turn, `CC1=NN(c2ccc(OC(F)F)cc2)C(=O)C1C(=O)Nc1cccc(C(F)(F)C2CCCC2)c1` (stereo not drawn) [compound 470, N-(3-(cyclopentyldifluoromethyl)phenyl)-1-(4-(difluoromethoxy)phenyl)-3-methyl-5-oxo-4,5-dihydro-1H-pyrazole-4-carboxamide] showed an IC50 of 100 to 1000 nM. Molecule `CON(C)C(=O)C(F)(F)c1cccc(NC(=O)C2C(=O)N(c3ccc(OC(F)F)c(-c4ccccn4)c3)N=C2C)c1` (stereo not drawn) [compound 471, N-(3-(1,1-difluoro-2-(methoxy(methyl)amino)-2-oxoethyl)phenyl)-1-(4-(difluoromethoxy)-3-(pyridin-2-yl)phenyl)-3-methyl-5-oxo-4,5-dihydro-1H-pyrazole-4-carboxamide] showed an IC50 of 100 to 1000 nM.

Consider `CCC(F)(F)c1cccc(NC(=O)C2C(=O)N(c3ccc(Cl)nn3)N=C2C)c1` (stereo not drawn) [compound 490, 1-(6-chloropyridazin-3-yl)-N-(3-(1,1-difluoropropyl)phenyl)-3-methyl-5-oxo-4,5-dihydro-1H-pyrazole-4-carboxamide], for which the IC50 lay in the range of 6 to 100 nM. `CCC(F)(F)c1cccc(NC(=O)C2C(=O)N(c3ccc(OC)nn3)N=C2C)c1` (stereo not drawn) [compound 510, N-(3-(1,1-difluoropropyl)phenyl)-1-(6-methoxypyridazin-3-yl)-3-methyl-5-oxo-4,5-dihydro-1H-pyrazole-4-carboxamide] gave an IC50 of 0.01 to 6 nM. To `CCC(F)(F)c1cccc(NC(=O)C2C(=O)N(c3ccc(C#N)cc3)N=C2C)c1` (stereo not drawn) [compound 501, 1-(4-cyanophenyl)-N-(3-(1,1-difluoropropyl)phenyl)-3-methyl-5-oxo-4,5-dihydro-1H-pyrazole-4-carboxamide] belongs 0.01 to 6 nM; to `CCC(F)(F)c1cccc(NC(=O)C2C(=O)N(c3ccc4ccn(C(=O)c5ccccc5)c4c3)N=C2C)c1` (stereo not drawn) [compound 475, 1-(1-benzoylindol-6-yl)-N-[3-(1,1-difluoropropyl)phenyl]-3-methyl-5-oxo-4H-pyrazole-4-carboxamide], 0.01 to 6 nM; to `CCC(F)(F)c1cccc(NC(=O)C2C(=O)N(c3ccc(OC(F)F)cc3)N=C2C)n1` (stereo not drawn) [compound 486, 1-(4-(difluoromethoxy)phenyl)-N-(6-(1,1-difluoropropyl)pyridin-2-yl)-3-methyl-5-oxo-4,5-dihydro-1H-pyrazole-4-carboxamide], 0.01 to 6 nM.

`CCC(F)(F)c1cccc(NC(=O)C2C(=O)N(c3ccc4ccsc4c3)N=C2C)c1` (stereo not drawn) [compound 485, 1-(benzo[b]thiophen-6-yl)-N-(3-(1,1-difluoropropyl)phenyl)-3-methyl-5-oxo-4,5-dihydro-1H-pyrazole-4-carboxamide] gave an IC50 of 0.01 to 6 nM.

Take `CCC(F)(F)c1ccnc(NC(=O)C2C(=O)N(c3ccc(OC(F)F)cc3)N=C2C)c1` (stereo not drawn) [compound 484, 1-(4-(difluoromethoxy)phenyl)-N-(4-(1,1-difluoropropyl)pyridin-2-yl)-3-methyl-5-oxo-4,5-dihydro-1H-pyrazole-4-carboxamide]: the IC50 was in the range of 6 to 100 nM. The same measure for `CCC(F)(F)c1cccc(NC(=O)C2C(=O)N(c3ccc4c(C)cn(C)c4c3)N=C2C)c1` (stereo not drawn) [compound 497, N-(3-(1,1-difluoropropyl)phenyl)-1-(1,3-dimethyl-1H-indol-6-yl)-3-methyl-5-oxo-4,5-dihydro-1H-pyrazole-4-carboxamide]: 0.01 to 6 nM.

Consider `CCC(F)(F)c1cccc(NC(=O)C2C(=O)N(c3ccc(OC)c(-c4ccnc(C)c4)c3)N=C2C)c1` (stereo not drawn) [compound 530, N-(3-(1,1-difluoropropyl)phenyl)-1-(4-methoxy-3-(2-methylpyridin-4-yl)phenyl)-3-methyl-5-oxo-4,5-dihydro-1H-pyrazole-4-carboxamide], for which the IC50 lay in the range of 0.01 to 6 nM. Molecule `CCC(F)(F)c1cc(NC(=O)C2C(=O)N(c3ccc(OC(F)F)cc3)N=C2C)ccn1` (stereo not drawn) [compound 506, 1-(4-(difluoromethoxy)phenyl)-N-(2-(1,1-difluoropropyl)pyridin-4-yl)-3-methyl-5-oxo-4,5-dihydro-1H-pyrazole-4-carboxamide] yielded an IC50 of 6 to 100 nM. To `CCC(F)(F)c1cccc(NC(=O)C2C(=O)N(c3ccc(OC)c(-c4cc(C)nc(C)c4)c3)N=C2C)c1` (stereo not drawn) [compound 531, N-(3-(1,1-difluoropropyl)phenyl)-1-(3-(2,6-dimethylpyridin-4-yl)-4-methoxyphenyl)-3-methyl-5-oxo-4,5-dihydro-1H-pyrazole-4-carboxamide] belongs 0.01 to 6 nM; to `CCC(F)(F)c1cccc(NC(=O)C2C(=O)N(c3ccc4ccn(Cc5ccccc5)c4c3)N=C2C)c1` (stereo not drawn) [compound 463, 1-(1-benzylindol-6-yl)-N-[3-(1,1-difluoropropyl)phenyl]-3-methyl-5-oxo-4H-pyrazole-4-carboxamide], 0.01 to 6 nM. On to `CCC(F)(F)c1cccc(NC(=O)C2C(=O)N(c3ccc4nc[nH]c4c3)N=C2C)c1` (stereo not drawn) [compound 500, 1-(1H-benzo[d]imidazol-6-yl)-N-(3-(1,1-difluoropropyl)phenyl)-3-methyl-5-oxo-4,5-dihydro-1H-pyrazole-4-carboxamide], for which the IC50 lay within 0.01 to 6 nM.

As to `CCC(F)(F)c1cccc(NC(=O)C2C(=O)N(c3ccc(OC)cc3)N=C2C(C)=O)c1` (stereo not drawn) [compound 529, 3-acetyl-N-(3-(1,1-difluoropropyl)phenyl)-1-(4-methoxyphenyl)-5-oxo-4,5-dihydro-1H-pyrazole-4-carboxamide], the IC50 was in the range of 100 to 1000 nM. As to `CCC(F)(F)c1cccc(NC(=O)C2C(=O)N(c3ccc4ccn(C(=O)c5ccccc5O)c4c3)N=C2C)c1` (stereo not drawn) [compound 509, N-(3-(1,1-difluoropropyl)phenyl)-1-(1-(2-hydroxybenzoyl)-1H-indol-6-yl)-3-methyl-5-oxo-4,5-dihydro-1H-pyrazole-4-carboxamid], the IC50 was 0.01 to 6 nM. To `CC1=NN(c2ccc(OC(F)F)cn2)C(=O)C1C(=O)Nc1cccc(C(F)(F)C2CC2)c1` (stereo not drawn) [compound 464, N-(3-(cyclopropyldifluoromethyl)phenyl)-1-(5-(difluoromethoxy)pyridin-2-yl)-3-methyl-5-oxo-4,5-dihydro-1H-pyrazole-4-carboxamide] belongs 0.01 to 6 nM; to `CCC(F)(F)c1cccc(NC(=O)C2C(=O)N(c3ccc4ccn(C)c4c3)N=C2C)c1` (stereo not drawn) [compound 462, N-[3-(1,1-difluoropropyl)phenyl]-3-methyl-1-(1-methylindol-6-yl)-5-oxo-4H-pyrazole-4-carboxamide], 0.01 to 6 nM. To `CCC(F)(F)c1cccc(NC(=O)C2C(=O)N(c3ccc4ccn(S(=O)(=O)c5ccccc5)c4c3)N=C2C)c1` (stereo not drawn) [compound 476, N-(3-(1,1-difluoropropyl)phenyl)-3-methyl-5-oxo-1-(1-(phenylsulfonyl)-1H-indol-6-yl)-4,5-dihydro-1H-pyrazole-4-carboxamide] belongs 0.01 to 6 nM; to `CCC(F)(F)c1cccc(NC(=O)C2C(=O)N(c3ccc4nccnc4c3)N=C2C)c1` (stereo not drawn) [compound 488, N-(3-(1,1-difluoropropyl)phenyl)-3-methyl-5-oxo-1-(quinoxalin-6-yl)-4,5-dihydro-1H-pyrazole-4-carboxamide], 0.01 to 6 nM; to `CCC(F)(F)c1cccc(NC(=O)C2C(=O)N(c3ccc(OC)cc3C(C)=O)N=C2C)c1` (stereo not drawn) [compound 516, 1-(2-acetyl-4-methoxyphenyl)-N-(3-(1,1-difluoropropyl)phenyl)-3-methyl-5-oxo-4,5-dihydro-1H-pyrazole-4-carboxamide], 6 to 100 nM.

`CCC(F)(F)c1cccc(NC(=O)C2C(=O)N(c3cnc(Cl)cn3)N=C2C)c1` (stereo not drawn) [compound 489, 1-(5-chloropyrazin-2-yl)-N-(3-(1,1-difluoropropyl)phenyl)-3-methyl-5-oxo-4,5-dihydro-1H-pyrazole-4-carboxamide] returned an IC50 of 0.01 to 6 nM.

`COc1ccccc1Cc1cc(-c2cccnc2)cc(N2N=C(C)C(C(=O)Nc3cccc(C(C)(F)F)c3)C2=O)c1` (stereo not drawn) [compound 466] came in with an IC50 of 6 to 100 nM. Molecule `CCC(F)(F)c1cccc(NC(=O)C2C(=O)N(c3ccc4cnn(S(=O)(=O)c5ccc(C)cc5)c4c3)N=C2C)c1` (stereo not drawn) [compound 487, N-[3-(1,1-difluoropropyl)phenyl]-3-methyl-5-oxo-1-[1-(p-tolylsulfonyl)indazol-6-yl]-4H-pyrazole-4-carboxamide] displayed an IC50 of 6 to 100 nM. The same measure for `CCC(F)(F)c1cccc(NC(=O)C2C(=O)N(c3ccc4ccoc4c3)N=C2C)c1` (stereo not drawn) [compound 491, 1-(benzofuran-6-yl)-N-(3-(1,1-difluoropropyl)phenyl)-3-methyl-5-oxo-4,5-dihydro-1H-pyrazole-4-carboxamide]: 0.01 to 6 nM. `CCC(F)(F)c1cccc(NC(=O)C2C(=O)N(c3ccc(S(C)(=O)=O)cc3)N=C2C)c1` (stereo not drawn) [compound 508, N-(3-(1,1-difluoropropyl)phenyl)-3-methyl-1-(4-(methylsulfonyl)phenyl)-5-oxo-4,5-dihydro-1H-pyrazole-4-carboxamide] had an IC50 of 0.01 to 6 nM. `CCC(F)(F)c1cccc(NC(=O)C2C(=O)N(c3cc4[nH]ccc4cn3)N=C2C)c1` (stereo not drawn) [compound 507, N-(3-(1,1-difluoropropyl)phenyl)-3-methyl-5-oxo-1-(1H-pyrrolo[3,2-c]pyridin-6-yl)-4,5-dihydro-1H-pyrazole-4-carboxamide]: the IC50 was in the range of 0.01 to 6 nM.
